Measurements reported in patent US10857105B2, “Compounds and compositions for intracellular delivery of therapeutic agents” (ModernaTX, Inc., priority 2017, dated 2020).

Tests used:
[1] = Particle size and polydispersity index of nanoparticle compositions (Zetasizer Nano ZS); assay type: physicochemical
Method in brief: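 Formulations of ionizable lipid, DSPC, cholesterol and PEG-DMG (50:10:38.5:1.5 mol %) carrying Luc or hEPO mRNA with all uridines as N1-methyl pseudouridine. Dynamic light scattering in 1×PBS gave particle size and polydispersity; zeta potential read in 15 mM PBS.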

[2] = Encapsulation efficiency of RNA in nanoparticle compositions (RIBOGREEN assay); assay type: physicochemical
Method in brief: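 Lipid nanoparticles (ionisable lipid:DSPC:cholesterol:PEG-DMG 50:10:38.5:1.5 mol %) carrying N1-methylpseudouridine luciferase or hEPO mRNA diluted to about 5 μg/mL in TE, pH 7.5, with or without 2% Triton X-100, 15 min at 37° C. RiboGreen fluorescence (ex ~480, em ~520 nm) blank-subtracted; free RNA = intact/disrupted signal.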

luciferase (Luc) mRNA [3] = test: Luciferase expression after intramuscular administration to mice; assay type: in vivo; conditions: for Total flux 6 hours after intramuscular administration, 0.01 mpk Dose: Luc mRNA; for Total flux 6 hours after intramuscular administration, 0.01 mpk Dose / Novel lipid/MC3 expression ratio, i.m. Luc: intramuscular; for Novel lipid/MC3 expression ratio, i.m. Luc: 6 hr. time point, relative to MC3 formulation
Source text: The numbers 1-7 in this figure correspond to MC3, Compounds 168-170, and 173-175 respectively.
FIGS. 18A and 18B show the results of luciferase expression measured upon intramuscular administration of various nanoparticle compositions to CD-1 mice at 0.01 mpk. FIG. 18A is a bar graph showing total flux at 6 hr after administration. The numbers above each bar indicate the expression ratio relative to MC3. […] Numbers 1-11 in the Figures refer to compositions containing the following: 1: MC3, 2: Compound 143, 3: Compound 49; 4: Compound 113; 5: Compound 61; 6: Compound 72; 7: Compound 75; 8: Compound 71; 9: Compound 128; 10: Compound 156; 11: Compound 157.
The numbers 1-9 in this figure correspond to MC3, and Compounds 178, 181, 182, 218, 198, 200, 233, and 239, respectively.
The total flux (measured by area under the curve, AUC) induced by administration of a formulation including a given lipid relative to that induced by administration of a formulation including MC3 was also measured for several lipids.
Sample formulations including modified luciferase (Luc) mRNA prepared and administered intramuscularly and the resulting expression and immunogenicity were evaluated simultaneously. Formulations including compounds according to Formula (I), (IA), (IB), (II), (IIa), (IIb), (IIc), (IId), (IIe), (IIf), (IIg), or (III) were prepared and administered at dose of and 0.01 mpk.

modified luciferase = test: Luciferase expression in liver, lung, spleen and femur 6 hours after intravenous administration to mice; assay type: in vivo; conditions: 6 hours after intravenous 0.5 mpk, mice
Method in brief: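 Mice (n=3) got a single 0.5 mpk IV dose of each nanoparticle composition, with MC3 and PBS controls alongside. Organ luminescence flux was read 6 h post-dose.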

luciferase (Luc) mRNA [4] = test: Luciferase expression (whole body bioluminescence) after intravenous administration to mice; assay type: in vivo; conditions: for Novel lipid/MC3 expression ratio, i.v.: intravenous, luciferase, 6 hr. time point, relative to MC3 formulation
Method in brief: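 Luc mRNA nanoparticles were given IV at 0.5 mg/kg to groups of six mice, and whole-body bioluminescent flux was imaged 3, 6 and 24 h post-dose. Flux AUC for each lipid formulation was reported as a ratio to the MC3 reference formulation.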

[5] = Table 1A, lipid:DSPC:cholesterol:PEG-DMG 50:10:38.5:1.5 mol %
[6] = Table 1B, formulated with hEPO mRNA
[7] = Table 1D, compositions for subcutaneous administration, # formulated with hEPO mRNA
[8] = Table 1E, compositions for subcutaneous administration

SMILES | Size [1, 5] [nm] | Size [1, 6] [nm] | Size [1, 7] [nm] | Size [1, 8] [nm] | EE [2, 6] [%] | EE [2, 5] [%] | Size ([1]; Table 1C, compositions for subcutaneous administration) [nm] | Total flux 6 hours after intramuscular administration, 0.01 mpk Dose (luciferase (Luc) mRNA [3]) [p/s] | Total Flux, Liver (modified luciferase) | Total Flux, Lung (modified luciferase) | Total Flux, Spleen (modified luciferase) | AUC (luciferase (Luc) mRNA [3]; luciferase, intramuscular administration (Table 3H)) [p/s*h] | Novel lipid/MC3 expression ratio, i.v. (luciferase (Luc) mRNA [4]) | Novel lipid/MC3 expression ratio, i.m. Luc (luciferase (Luc) mRNA [3]; luciferase) | AUC (luciferase (Luc) mRNA [4]; intravenous administration (Table 3D)) [p/s*h]
CCCC/C=C\CCC(CC/C=C\CCCC)OC(=O)CCCCCCCN(CCO)CCCCCCCC(=O)OCCCCCCCCC [Compound 60, (5Z,12Z)-Heptadeca-5,12-dien-9-yl 8-((2-hydroxyethyl)(8-(nonyloxy)-8-oxooctyl)amino)octanoate] | 95.1 | 88.9 | 87.4 | 93.3 | 95.20 | – | – | 9.48E+07 | 1.54E+09 | 6.25E+06 | 7.12E+06 | – | – | – | –
CCCC/C=C\CCC(CC/C=C\CCCC)OC(=O)CCCCCCCN(CCO)CCCCCC(=O)OCCCCCCCCCCC [Compound 61, (5Z,12Z)-heptadeca-5,12-dien-9-yl 8-((2-hydroxyethyl)(6-oxo-6-(undecyloxy)hexyl)amino)octanoate] | 82.1 | – | – | 80.0 | – | – | – | – | 6.37E+08 | 3.56E+06 | 1.61E+07 | 2.30E+09 | – | – | –
CCCCCCCCC(CCCCCCCC)OC(=O)CCCCCCCN(CCO)CCCC(=O)OC(CCCCC)CCCCCCCC (centres unmarked) [Compound 71, Heptadecan-9-yl 8-((2-hydroxyethyl)(4-oxo-4-(tetradecan-6-yloxy)butyl)amino)octanoate] | 71 | – | – | – | – | 97.54 | – | – | 7.93E+08 | 4.86E+06 | 8.04E+06 | – | 0.42 | 0.08 | –
CCCCCCCCC(CCCCCCCC)OC(=O)CCCCCCCN(CCO)CCCCCC(=O)OC(CCCCCCCC)C1CC1 (centres unmarked) [Compound 128, Heptadecan-9-yl 8-((6-((1-cyclopropylnonyl)oxy)-6-oxohexyl)(2-hydroxyethyl)amino)octanoate] | 104.1 | – | – | 73.9 | – | – | – | – | 5.98E+09 | 2.16E+07 | 7.09E+07 | – | – | 0.99 | –
CCCCCCCCCOC(=O)CCCCCCCN(CCCCCCCC(=O)OC(CCCCCCCC)CCCCCCCC)CCCNc1c(N(C)C)c(=O)c1=O [Compound 169, Heptadecan-9-yl 8-((3-((2-(dimethylamino)-3,4-dioxocyclobut-1-en-1-yl)amino)propyl)(8-(nonyloxy)-8-oxooctyl)amino)octanoate] | 87.4 | – | – | – | – | – | – | – | – | – | – | – | 0.11 | 3.3 | –
CCCCCCCCCOC(=O)CCCCCCCN(CCCCCCCC(=O)OC(CCCCCCCC)CCCCCCCC)CCCNc1c(NC)c(=O)c1=O [Compound 182, Heptadecan-9-yl 8-((3-((2-(methylamino)-3,4-dioxocyclobut-1-en-1-yl)amino)propyl)(8-(nonyloxy)-8-oxooctyl)amino)octanoate] | 84.4 | – | – | – | – | 99.0 | – | – | – | – | – | – | 0.66 | 6.80 | –

Now from value to compound, other results behind:

Size [1, 5] [nm] | Size [1, 6] [nm] | Size [1, 7] [nm] | Size [1, 8] [nm] | EE [2, 6] [%] | EE [2, 5] [%] | Size ([1]; Table 1C, compositions for subcutaneous administration) [nm] | SMILES | Total flux 6 hours after intramuscular administration, 0.01 mpk Dose (luciferase (Luc) mRNA [3]) [p/s] | Total Flux, Liver (modified luciferase) | Total Flux, Lung (modified luciferase) | Total Flux, Spleen (modified luciferase) | AUC (luciferase (Luc) mRNA [3]; luciferase, intramuscular administration (Table 3H)) [p/s*h] | Novel lipid/MC3 expression ratio, i.v. (luciferase (Luc) mRNA [4]) | Novel lipid/MC3 expression ratio, i.m. Luc (luciferase (Luc) mRNA [3]; luciferase) | AUC (luciferase (Luc) mRNA [4]; intravenous administration (Table 3D)) [p/s*h]
77.2 | – | – | 71.8 | – | – | – | CCCCCCCCCOC(=O)CCCCCCCN(CCCCCCCC(=O)OC(CCCCCCCC)CCCCCCCC)CC(O)CO (centres unmarked) [Compound 69, Heptadecan-9-yl 8-((2,3-dihydroxypropyl)(8-(nonyloxy)-8-oxooctyl)amino)octanoate] | 8.83E+06 | 2.24E+08 | 7.34E+05 | 2.54E+06 | – | 0.30 | 0.27 | –
116.7 | 93.3 | 94.5 | 88.9 | 91.23 | – | – | CCCCCCCCCOC(=O)CCCCCCCN(CCCCCCCC(=O)OC(CCCCCCCC)CCCCCCCC)CCCNC(=S)N(C)C [Compound 111, Heptadecan-9-yl 8-((3-(3,3-dimethylthioureido)propyl)(8-(nonyloxy)-8-oxooctyl)amino)octanoate] | 1.58E+08 | 4.83E+09 | 2.57E+07 | 2.44E+08 | – | – | – | –
69.3 | 70.2 | – | – | 96.27 | – | 80.2 | CCCCCCCCC(C)OC(=O)CCCCCN(CCO)CCCCCCCC(=O)OC(CCCCCCCC)CCCCCCCC (centres unmarked) [Compound 122, Heptadecan-9-yl 8-((6-(decan-2-yloxy)-6-oxohexyl)(2-hydroxyethyl)amino)octanoate] | 9.19E+07 | 2.63E+09 | 2.77E+07 | 1.56E+07 | – | – | – | –
68.1 | – | – | – | – | – | – | CCCCCCCCCOC(=O)CCCCCCCN(CCCCCCCC(=O)OC(CCCCCCCC)CCCCCCCC)C(CO)CO [Compound 156, Heptadecan-9-yl 8-((1,3-dihydroxypropan-2-yl)(8-(nonyloxy)-8-oxooctyl)amino)octanoate] | – | 6.51E+08 | 1.92E+06 | 1.82E+07 | – | 0.60 | 0.06 | 1.170E+011
96.0 | – | – | – | – | – | – | CCCCCCCCCOC(=O)CCCCCCCN(CCCCCCCC(=O)OC(CCCCCCCC)CCCCCCCC)CCCN/C(=C/[N+](=O)[O-])NC [Compound 170, Heptadecan-9-yl (E)-8-((3-((1-(methylamino)-2-nitrovinyl)amino)propyl)(8-(nonyloxy)-8-oxooctyl)amino)octanoate] | – | – | – | – | – | 0.02 | 5.3 | –
78.7 | – | – | – | – | 88.9 | – | CCCCCCCCCOC(=O)CCCCCCCN(CCCCCCCC(=O)OC(CCCCCCCC)CCCCCCCC)CCCNC(=O)OC [Compound 181, Heptadecan-9-yl 8-((3-((methoxycarbonyl)amino)propyl)(8-(nonyloxy)-8-oxooctyl)amino)octanoate] | – | – | – | – | – | 0.27 | 0.97 | –
84.2 | – | – | – | – | 99.5 | – | CCCCCCCCCOC(=O)CCCCCCCN(CCCCCCCC(=O)OC(CCCCCCCC)CCCCCCCC)CCCNC(=O)CO [Compound 198, Heptadecan-9-yl 8-((3-(2-hydroxyacetamido)propyl)(8-(nonyloxy)-8-oxooctyl)amino)octanoate] | – | – | – | – | – | 0 | 0.52 | –
66.9 | 93.7 | 87.0 | – | 97.6 | 97.81 | – | CCCCCCCCCOC(=O)CCCCCCCN(CCCCCCCC(=O)OC(CCCCCCCC)CCCCCCCC)CCCN/C(=N/S(C)(=O)=O)N(C)C [Compound 233, Heptadecan-9-yl (Z)-8-((3-(3,3-dimethyl-2-(methylsulfonyl)guanidino)propyl)(8-(nonyloxy)-8-oxooctyl)amino)octanoate] | – | – | – | – | – | – | 0.05 | –
55.8 | 71.3 | – | – | 82.6 | 90.42 | – | CCCCCCCCCOC(=O)CCCCCCCN(CCCCCCCC(=O)OC(CCCCCCCC)CCCCCCCC)CCCC(=O)NC [Compound 239, Heptadecan-9-yl 8-((4-(methylamino)-4-oxobutyl)(8-(nonyloxy)-8-oxooctyl)amino)octanoate] | – | – | – | – | – | – | 0.01 | –
